Assay results from US20170190705A1, “Compositions and Methods for Inhibiting BMP” (THE BRIGHAM AND WOMAN'S HOSPITAL, INC., priority 2014, published 2017).
Where two headings read alike, the source gives them in different places.

Columns and labels:
Type in all cases: biochemical
P38β = P38β (Homo sapiens, UniProt Q15759); test: Kinome profiling P38β; settings: read-out: Inhibitory activity P38β; for inhibition at 0.1 µM: 100 nM
Protocol: (§1) . The kinome-wide selectivity was determined following the methods previously reported by Mohedas et al., ACS Chem Biol 2013, 8, 1291-1302 and Sanvitale et al., PLoS One 2013, 8, e62721.

EPH-A2 = EPH-A2 (Homo sapiens, UniProt P29317); test: Kinome profiling EPH-A2; settings: read-out: Inhibitory activity EPH-A2; for inhibition at 0.1 µM: 100 nM
Sequence of EPH-A2 (P29317 24-976): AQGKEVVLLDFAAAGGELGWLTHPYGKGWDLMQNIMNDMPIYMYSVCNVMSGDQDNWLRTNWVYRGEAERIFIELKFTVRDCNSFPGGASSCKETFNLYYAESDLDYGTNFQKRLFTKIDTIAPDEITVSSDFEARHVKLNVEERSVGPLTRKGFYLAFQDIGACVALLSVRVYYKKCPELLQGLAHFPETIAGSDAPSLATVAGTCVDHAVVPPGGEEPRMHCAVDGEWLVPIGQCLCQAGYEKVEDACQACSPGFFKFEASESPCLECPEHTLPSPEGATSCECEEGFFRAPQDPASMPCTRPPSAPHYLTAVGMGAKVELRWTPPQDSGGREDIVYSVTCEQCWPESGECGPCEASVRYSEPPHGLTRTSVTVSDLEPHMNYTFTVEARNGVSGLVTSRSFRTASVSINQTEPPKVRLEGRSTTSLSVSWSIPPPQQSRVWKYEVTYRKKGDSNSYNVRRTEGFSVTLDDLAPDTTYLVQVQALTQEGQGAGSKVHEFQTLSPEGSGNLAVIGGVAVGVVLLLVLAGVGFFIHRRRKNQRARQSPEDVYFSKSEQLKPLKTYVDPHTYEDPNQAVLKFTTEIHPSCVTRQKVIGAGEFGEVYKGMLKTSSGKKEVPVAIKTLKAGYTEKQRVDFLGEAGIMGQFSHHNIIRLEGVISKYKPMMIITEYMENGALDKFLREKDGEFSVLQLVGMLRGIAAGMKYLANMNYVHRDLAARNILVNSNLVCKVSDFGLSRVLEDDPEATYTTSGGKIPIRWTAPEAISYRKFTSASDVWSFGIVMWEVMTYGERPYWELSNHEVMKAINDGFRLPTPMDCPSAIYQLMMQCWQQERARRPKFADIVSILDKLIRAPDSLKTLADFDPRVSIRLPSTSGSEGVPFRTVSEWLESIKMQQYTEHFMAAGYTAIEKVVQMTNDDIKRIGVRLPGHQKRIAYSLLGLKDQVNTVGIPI
Protocol: as §1

CLK3 = CLK3 (Homo sapiens, UniProt P49761); test: Kinome profiling CLK3; settings: read-out: Inhibitory activity CLK3; for inhibition at 0.1 µM: 100 nM
Sequence of CLK3 (P49761 whole entry): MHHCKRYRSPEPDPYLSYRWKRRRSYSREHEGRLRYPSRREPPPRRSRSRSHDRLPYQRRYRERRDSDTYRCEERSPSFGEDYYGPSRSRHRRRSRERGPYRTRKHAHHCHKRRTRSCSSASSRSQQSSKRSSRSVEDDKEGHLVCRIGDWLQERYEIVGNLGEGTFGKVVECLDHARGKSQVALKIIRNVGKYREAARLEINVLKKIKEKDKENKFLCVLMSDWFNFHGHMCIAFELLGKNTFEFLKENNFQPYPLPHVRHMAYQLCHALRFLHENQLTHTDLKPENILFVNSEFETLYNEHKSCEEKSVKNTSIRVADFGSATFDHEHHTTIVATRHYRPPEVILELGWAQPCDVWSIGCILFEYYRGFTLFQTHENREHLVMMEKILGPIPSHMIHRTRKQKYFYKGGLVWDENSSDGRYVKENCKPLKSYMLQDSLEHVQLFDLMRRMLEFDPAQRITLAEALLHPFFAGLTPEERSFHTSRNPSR
Protocol: as §1

MER = target: T1, MER (Homo sapiens, UniProt Q12866); test: Kinome profiling MER; settings: read-out: Inhibitory activity MER; for inhibition at 0.1 µM: 100 nM
T1 sequence (Q12866 21-999): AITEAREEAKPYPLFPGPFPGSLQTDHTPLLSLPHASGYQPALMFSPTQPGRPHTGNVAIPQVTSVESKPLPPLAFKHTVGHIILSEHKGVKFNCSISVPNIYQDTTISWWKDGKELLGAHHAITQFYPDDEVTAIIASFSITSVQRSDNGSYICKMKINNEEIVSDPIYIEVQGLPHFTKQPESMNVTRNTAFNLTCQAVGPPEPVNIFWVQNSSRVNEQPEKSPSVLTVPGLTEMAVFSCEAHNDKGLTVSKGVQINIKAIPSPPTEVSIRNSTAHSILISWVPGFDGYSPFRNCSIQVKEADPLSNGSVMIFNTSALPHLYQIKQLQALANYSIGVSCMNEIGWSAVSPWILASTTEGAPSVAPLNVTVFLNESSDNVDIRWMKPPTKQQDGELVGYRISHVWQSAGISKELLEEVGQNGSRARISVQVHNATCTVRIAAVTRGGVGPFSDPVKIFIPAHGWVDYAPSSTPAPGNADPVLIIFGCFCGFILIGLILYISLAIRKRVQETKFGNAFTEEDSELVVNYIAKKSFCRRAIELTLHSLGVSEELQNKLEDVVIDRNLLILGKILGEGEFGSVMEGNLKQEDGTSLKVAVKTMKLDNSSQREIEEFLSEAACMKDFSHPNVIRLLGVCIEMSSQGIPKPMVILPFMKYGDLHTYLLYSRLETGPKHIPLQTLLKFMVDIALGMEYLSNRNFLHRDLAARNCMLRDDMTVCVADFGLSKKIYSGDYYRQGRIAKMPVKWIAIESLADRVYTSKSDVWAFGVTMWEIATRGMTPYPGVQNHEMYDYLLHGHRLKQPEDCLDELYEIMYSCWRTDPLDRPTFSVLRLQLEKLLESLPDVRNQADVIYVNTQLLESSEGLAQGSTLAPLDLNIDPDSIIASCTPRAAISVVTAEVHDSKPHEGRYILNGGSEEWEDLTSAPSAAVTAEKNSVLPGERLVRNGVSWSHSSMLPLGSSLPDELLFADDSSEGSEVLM
Protocol: as §1

PDGFRβ = PDGFRβ (Homo sapiens, UniProt P09619); test: Kinome profiling PDGFRβ; settings: for inhibition at 0.1 µM: 100 nM
Sequence of PDGFRβ (P09619 33-1106): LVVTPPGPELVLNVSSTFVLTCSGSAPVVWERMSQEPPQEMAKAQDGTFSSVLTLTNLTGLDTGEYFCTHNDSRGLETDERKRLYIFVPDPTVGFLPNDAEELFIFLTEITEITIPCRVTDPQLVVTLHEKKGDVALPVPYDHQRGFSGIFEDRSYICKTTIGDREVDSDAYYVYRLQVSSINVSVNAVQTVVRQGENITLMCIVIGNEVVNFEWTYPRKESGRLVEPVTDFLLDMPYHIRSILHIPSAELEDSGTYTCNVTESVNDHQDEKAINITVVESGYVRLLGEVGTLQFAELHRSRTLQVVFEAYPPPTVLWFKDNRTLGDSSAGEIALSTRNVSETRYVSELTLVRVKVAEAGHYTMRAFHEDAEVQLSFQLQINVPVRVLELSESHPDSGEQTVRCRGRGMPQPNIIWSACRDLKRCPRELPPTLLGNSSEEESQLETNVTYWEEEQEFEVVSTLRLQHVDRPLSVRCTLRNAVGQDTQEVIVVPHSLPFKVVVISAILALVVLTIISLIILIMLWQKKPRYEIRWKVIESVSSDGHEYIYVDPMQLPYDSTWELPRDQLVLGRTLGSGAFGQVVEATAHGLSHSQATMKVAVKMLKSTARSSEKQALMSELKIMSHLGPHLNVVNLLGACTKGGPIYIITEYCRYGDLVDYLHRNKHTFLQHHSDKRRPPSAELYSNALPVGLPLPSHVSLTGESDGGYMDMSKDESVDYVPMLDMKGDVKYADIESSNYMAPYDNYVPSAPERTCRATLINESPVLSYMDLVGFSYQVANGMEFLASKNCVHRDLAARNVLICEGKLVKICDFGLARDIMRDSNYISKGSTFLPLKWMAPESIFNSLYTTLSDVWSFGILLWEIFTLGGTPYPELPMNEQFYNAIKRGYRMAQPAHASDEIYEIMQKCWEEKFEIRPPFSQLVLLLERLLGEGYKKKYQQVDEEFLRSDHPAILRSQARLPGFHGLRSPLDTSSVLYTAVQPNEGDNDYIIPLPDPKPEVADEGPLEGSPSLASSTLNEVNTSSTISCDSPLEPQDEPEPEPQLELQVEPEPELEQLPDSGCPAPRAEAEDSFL
Protocol: as §1

CK1-γ1 = CK1-γ1 (Homo sapiens, UniProt Q9HCP0); test: Kinome profiling CK1-γ1; settings: read-out: Inhibitory activity CK1-γ1; for inhibition at 0.1 µM: 100 nM
Sequence of CK1-γ1 (Q9HCP0 whole entry): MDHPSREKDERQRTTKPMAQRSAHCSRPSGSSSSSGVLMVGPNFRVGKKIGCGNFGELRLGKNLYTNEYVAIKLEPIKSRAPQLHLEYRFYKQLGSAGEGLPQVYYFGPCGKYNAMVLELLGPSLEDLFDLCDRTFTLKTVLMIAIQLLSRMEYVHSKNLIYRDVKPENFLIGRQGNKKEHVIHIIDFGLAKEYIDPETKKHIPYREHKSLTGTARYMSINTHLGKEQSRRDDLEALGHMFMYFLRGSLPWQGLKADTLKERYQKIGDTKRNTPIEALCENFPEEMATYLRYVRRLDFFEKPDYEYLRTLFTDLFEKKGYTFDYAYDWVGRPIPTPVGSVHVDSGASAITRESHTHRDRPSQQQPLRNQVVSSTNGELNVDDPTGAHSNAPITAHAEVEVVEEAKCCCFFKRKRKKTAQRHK
Protocol: as §1

BMX = target: T2, BMX (Homo sapiens, UniProt P51813); test: Kinome profiling BMX; settings: read-out: Inhibitory activity BMX; for inhibition at 0.1 µM: 100 nM
T2 sequence (P51813 1-675): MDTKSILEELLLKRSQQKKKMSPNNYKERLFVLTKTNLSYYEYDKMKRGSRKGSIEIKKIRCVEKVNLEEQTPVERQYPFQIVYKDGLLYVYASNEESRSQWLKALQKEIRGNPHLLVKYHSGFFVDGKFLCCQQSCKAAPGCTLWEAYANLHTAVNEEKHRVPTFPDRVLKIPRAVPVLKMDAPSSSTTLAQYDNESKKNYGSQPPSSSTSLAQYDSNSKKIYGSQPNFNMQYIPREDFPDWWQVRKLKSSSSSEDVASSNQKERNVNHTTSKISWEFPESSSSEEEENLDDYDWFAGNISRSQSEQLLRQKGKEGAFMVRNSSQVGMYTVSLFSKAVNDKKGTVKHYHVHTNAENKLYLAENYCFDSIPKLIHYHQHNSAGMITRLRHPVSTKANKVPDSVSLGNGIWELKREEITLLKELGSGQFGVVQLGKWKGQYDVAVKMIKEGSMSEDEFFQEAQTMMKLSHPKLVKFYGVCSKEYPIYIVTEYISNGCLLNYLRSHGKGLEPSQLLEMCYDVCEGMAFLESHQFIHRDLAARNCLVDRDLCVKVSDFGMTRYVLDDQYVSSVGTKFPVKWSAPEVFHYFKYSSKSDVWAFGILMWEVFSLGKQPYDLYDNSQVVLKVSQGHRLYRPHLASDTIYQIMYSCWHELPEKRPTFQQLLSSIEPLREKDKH
Protocol: as §1

[1] = Table 4, read-out: Inhibitory Activity PDGFR-BETA
[2] = read-out: Inhibitory activity PDGFRβ

Sequence of P38β (Q15759 whole entry): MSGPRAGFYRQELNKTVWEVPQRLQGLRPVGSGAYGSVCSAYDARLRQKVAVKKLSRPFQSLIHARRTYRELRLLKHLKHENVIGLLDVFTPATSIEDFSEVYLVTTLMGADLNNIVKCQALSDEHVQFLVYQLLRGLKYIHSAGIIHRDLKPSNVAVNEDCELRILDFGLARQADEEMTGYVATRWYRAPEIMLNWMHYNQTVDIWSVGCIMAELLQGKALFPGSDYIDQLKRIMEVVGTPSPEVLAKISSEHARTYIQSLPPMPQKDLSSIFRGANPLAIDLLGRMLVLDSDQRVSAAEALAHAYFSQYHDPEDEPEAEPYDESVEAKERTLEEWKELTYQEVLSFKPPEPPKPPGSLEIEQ

Row | SMILES | inhibition at 0.1 µM (P38β) [%] | inhibition at 1 µM (P38β) [%] | inhibition at 0.1 µM (EPH-A2) [%] | inhibition at 1 µM (EPH-A2) [%] | inhibition at 0.1 µM (CLK3) [%] | inhibition at 1 µM (CLK3) [%] | inhibition at 0.1 µM (MER) [%] | inhibition at 1 µM (MER) [%] | inhibition at 0.1 µM (PDGFRβ; [1]) [%] | inhibition at 0.1 µM (PDGFRβ; [2]) [%] | inhibition at 1 µM (PDGFRβ; [1]) [%] | inhibition at 1 µM (PDGFRβ; [2]) [%] | inhibition at 0.1 µM (CK1-γ1) [%] | inhibition at 1 µM (CK1-γ1) [%] | inhibition at 0.1 µM (BMX) [%] | inhibition at 1 µM (BMX) [%]
1 | COc1cc(-c2cc(-c3ccc(N4CCNCC4)cc3)cnc2C)cc(OC)c1OC [Compound 10, 1-(4-(6-methyl-5-(3,4,5-trimethoxyphenyl)pyridin-3-yl)phenyl)piperazine] | 1 | 11 | -2 | 1 | 9 | 12 | 8 | 36 | 17 | 17 | 64 | 64 | 1 | 6 | 7 | 11
2 | COc1cc(-c2cc(-c3ccc(N4CCNCC4)cc3)cnc2N)cc(OC)c1OC [Compound 15, 5-(4-(piperazin-1-yl)phenyl)-3-(3,4,5-trimethoxyphenyl)pyridin-2-amine] | 10 | 44 | -3 | 4 | 0 | 0 | 30 | 76 | – | 47 | – | 77 | 4 | 17 | 5 | 30
